The source of these data is patent US20230233545A1, “TREATMENT OF ATRIAL DYSFUNCTION” (MyoKardia, Inc., priority 2020, published 2023).

Each structure is given as a SMILES string.

The data set has as its system dogs with microembolization-induced heart failure. The data set is described as follows: Echocardiography/haemodynamics in dogs with microembolization-induced heart failure. In kind it is in vivo, beagle dogs. As to conditions: 2-3 mg/kg orally, 5 hours post-treatment. From the text: Seven male beagle dogs underwent a modified serial coronary microembolization protocol to produce chronic LV dysfunction and HF (Geist et al., J Pharmacol Toxicol Methods (2019) 99:106595), as determined by both LV remodeling and decreases in LV ejection fraction (LVEF). A subset of animals (n=5) were also surgically implanted with a radio-telemetry transmitter (TL11M3-D70-PCTP; Data Sciences Int., MN, USA) to provide systemic arterial blood and LV pressures. The microembolization and instrumentation techniques employed have been previously validated (Hartman et al., JACC Basic Transl Sci. (2018) 3(5):625-38).
The effects of Compound I (at 2-3 mg/kg oral tablet; n=14) on LV/LA function and geometry, as well as systemic/ventricular haemodynamics, were examined by echocardiography in conscious, lightly sedated animals (butorphanol 0.25-0.5 mg/kg intravenous) before dosing (i.e., baseline) as well at 5 hours post-treatment.
In these experiments, 2D and 2D-guided M-mode echocardiographic (CX50; Philips Medical System, MA, USA) recordings of LV dimension, LA dimension (LAd) and aortic dimension (Aod), as well as LV volume estimates (Simpson's and Teichholz's methods), were obtained at end-systole/diastole in both short-axis (papillary-level) and/or apical/parasternal long-axis views. From these measurements, LV stroke volume (LVSV), cardiac output (CO), LV fractional shortening (LVFS), LV fractional area of shortening and LVEF, as well as the LAd/Aod ratio, were calculated. LV outflow tract (LVOT) blood velocity (via Doppler) was measured and the LVOT velocity−time integral (LVOT−VTI) calculated. In addition, maximal (end-systolic, LAmax) and minimal (end-diastolic, LAmin) LA volumes were measured using the bi-plane method; both LA emptying fraction (LAEF=100×[LAmax−LAmin]/LAmax) and LA functional index (LAFI=[LAEF×LVOT−VTI]/LAmax index) were calculated (Thomas et al., Eur J Echocardiogr (2008) 9(3):356-362). Diastolic trans-mitral peak flow velocities (E and A), mitral-annulus tissue velocities (e′, s′ and a′), and their ratios during early filling (E/e′), were recorded/used as indices of diastolic performance. In all cases, atrial and ventricular indexed volumes were calculated by normalizing to the estimated body surface area (0.101×[body weight in kg][…]), while reported data were derived by averaging at least three cardiac cycles. Finally, haemodynamic signals were digitally acquired (1000 Hz) and recorded continuously with a data acquisition/analysis system (IOX; EMKA Technologies). Heart rate (HR) and end-systolic and end-diastolic pressures, as well as the peak rates of pressure rise and decline (dP/dtmax and dP/dtmin, respectively), the contractility index (dP/dt/P at dP/dtmax), and the time constant of myocardial relaxation (tau1/2, time for 50% decay from dP/dtmin) were derived from the LV pressure signal. Systolic, diastolic and mean systemic blood pressures, as well as pulse pressures, were derived from the aortic pressure signal. Haemodynamic data were reported as the average over at least 1 minute (at steady state). In vivo data are presented as means (SD) in the text or as mean±SEM in the figures; mean differences between pre- and post-treatment values were evaluated via a two-tailed paired t-test with a significance level of 0.05 set a priori (GraphPad Prism, GraphPad Software Inc., CA, USA).

The compound `Cn1cc(S(=O)(=O)[C@@](C)(F)C2CCN(C(=O)Nc3ccon3)CC2)c(C(F)F)n1` [Compound I, (R)-4-(1-((3-(difluoromethyl)-1-methyl-1H-pyrazol-4-yl)sulfonyl)-1-fluoroethyl)-N-(isoxazol-3-yl)piperidine-1-carboxamide] registered an LVESD (SD ±0.2, baseline 3.4 (±0.2), p<0.05) of 3.2 cm. The E/A (SD ±0.3, baseline 1.6 (±0.2)) turned out to be 1.6. Also, the LVEDD (SD ±0.3, baseline 4.3 (±0.2)) was 4.3 cm. In addition, the “e′ (mitral annular velocity)” value (SD ±1.1, baseline 7.4 (±1.0)) is given as 7.3 cm/s. Also, the “a′ (late peak mitral annular velocity)” value (SD ±1.3, baseline 4.0 (±1.2), p<0.05) came out at 5.4 cm/s. Besides, where the note is “SD ±1.6, baseline 3.4 (±0.9), p<0.05”, the “CO (cardiac output, estimated)” value is given as 4.1 L/min. Moreover, the LVFS (SD ±3.6, baseline 19.6 (±2.7), p<0.05) is listed as 25.6%. The “LVGCS (LV global circumferential strain)” value (SD ±4.4, baseline −13.5 (±4.4), p<0.05) was −17.3%. Besides, for the setting “SD ±6, baseline 41 (±5), p<0.05”, the LVEF is given as 51%. Where the note is “SD ±6.5, baseline 7.7 (±3.3), p<0.05”, the “LAFI (left atrial functional index)” value was 15.2. The “LAEF (left atrial emptying fraction)” value (SD ±6.9, baseline 20.4 (±4.4), p<0.05) is 31.1%. Moreover, under “SD ±8, baseline 41 (±6)”, the “A (late peak wave velocity, mitral inflow)” value was found to be 46 cm/s. Further, under “SD ±9.0, baseline 21.2 (±8.3), p<0.05”, the “LAmin Vol. index (LAminVi)” value turned out to be 17.9 mL/m^2. The “LAmax Vol. index” value (SD ±9.7, baseline 26.7 (±9.7), p<0.05) is 25.1 mL/m^2. Also, the “DBP (diastolic blood pressure)” value (SD ±13, baseline 66 (±10)) is 72 mmHg. The “E (early trans-mitral peak wave velocity)” value (SD ±40, baseline 71 (±12)) was found to be 74 cm/s. Moreover, under “baseline 178 (±24), p<0.05”, the “SET (systolic ejection time)” value came out at 200 ms. In addition, the “LVSV (left ventricular stroke volume)” value (mean, SD ±10.7, baseline 33.0 (±5.9), p<0.05) came to 43.6 mL. For the setting “n/u, SD ±1.2, baseline 9.7 (±1.9)”, the “E/e′” value came out at 10.2. The “LVEDP (LV end-diastolic pressure)” value (telemetry subset, SD ±4, baseline 18 (±2)) was found to be 16 mmHg. Moreover, the “SBP (systolic blood pressure)” value (telemetry subset, SD ±10, baseline 110 (±10)) is reported as 119 mmHg. The “HR (heart rate)” value (telemetry subset, SD ±50, baseline 108 (±45), p<0.05) is listed as 99 bpm.
